Measurements from publication PMC6891772 (Marine Drugs, 2019).

Target: T1, arylamine-N-acetyltransferase (TBNAT) (Mycobacterium tuberculosis, UniProt P9WJI5)
T1 construct: gene nat
T1 sequence (P9WJI5 1-283): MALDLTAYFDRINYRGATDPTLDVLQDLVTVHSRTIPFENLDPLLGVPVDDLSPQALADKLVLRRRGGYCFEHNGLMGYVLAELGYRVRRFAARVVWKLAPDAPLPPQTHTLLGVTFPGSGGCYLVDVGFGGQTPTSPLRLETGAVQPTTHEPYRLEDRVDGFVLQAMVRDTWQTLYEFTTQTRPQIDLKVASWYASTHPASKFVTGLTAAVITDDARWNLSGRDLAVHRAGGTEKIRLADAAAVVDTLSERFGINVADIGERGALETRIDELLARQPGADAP
Assay: biochemical

SMILES | IC50
CC(=O)O[C@H]1CC(C)(C)C(=C=C/C(C)=C/C=C/C(C)=C/C=C/C=C(C)/C=C/C=C(\C)C(=O)C[C@@]23O[C@]2(C)C[C@@H](O)CC3(C)C)[C@](C)(O)C1 [fucoxanthin] | 4.8 ± 0.4 µM
NNC(=O)c1ccncc1 [isoniazid] | 5.9 ± 0.2 µM
